# Measurements: PMC12543283, “TastepepAI: An artificial intelligence platform for taste peptide de novo design” (PLOS Computational Biology, 2025)
# Ends that are not written are not given here.
# Experiments:
# [1] = test system: human pancreatic ductal epithelial cells (HPNE)
# [2] = test system: human umbilical vein endothelial cells (HUVEC)
# [3] = test system: human embryonic kidney cells (HEK293T)
# Procedure: The cytotoxicity of 73 synthetic peptides was evaluated using four human cell lines: human pancreatic ductal epithelial cells (HPNE), human embryonic kidney cells (HEK293T), human umbilical vein endothelial cells (HUVEC), and human bronchial epithelial cells (BEAS-2B). When cell density reached 70% confluence, the complete culture medium was replaced with serum-free maintenance medium, and peptides were added at a final concentration of 100 μM for 36 h. Control groups received only serum-free maintenance medium without peptides. Cell proliferation was assessed using the CCK-8 assay kit (Solarbio, CA1210) according to the manufacturer’s instructions.
# [4] = Electronic tongue analysis (Taste-Sensing System SA 402B); set-up: unit not given here; conditions: reference solution 30 mM KCl + 0.3 mM tartaric acid as baseline, first measurement excluded; for Umami: sensor AAE; for Umami / Bitter / Sweet: detection threshold 0, room temperature; for Umami / Bitter / Sour / Salty: four replicates; for Sour: detection threshold -13, room temperature; for Salty: detection threshold -6, room temperature; for Sweet: measured five times
# Method in brief: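 Samples were tested at 0.1 and 1.0 mg/mL on an SA 402B e-tongue fitted with sourness, saltiness, bitterness, sweetness and umami sensors, with 30 mM KCl/0.3 mM tartaric acid as reference and baseline. Thresholds were −13 for sour, −6 for salty and 0 for the rest. Runs at room temperature: four replicates, five for sweetness, first reading discarded.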
# [5] = test system: human bronchial epithelial cells (BEAS-2B)
Substance,"Average cell viability, HPNE [1]","Cell viability, HPNE, Data1 [1]","Cell viability, HPNE, Data2 [1]","Cell viability, HPNE, Data3 [1]","Average cell viability, HUVEC [2]","Cell viability, HUVEC, Data1 [2]","Cell viability, HUVEC, Data2 [2]","Cell viability, HUVEC, Data3 [2]","Average cell viability, HEK293T [3]","Cell viability, HEK293T, Data1 [3]","Cell viability, HEK293T, Data2 [3]","Cell viability, HEK293T, Data3 [3]",Umami ([4]; peptide 0.1 mg/mL),Umami ([4]; peptide 1 mg/mL),"Bitter ([4]; sensor C00, peptide 0.1 mg/mL)","Bitter ([4]; sensor C00, peptide 1 mg/mL)","Sour ([4]; sensor CA0, peptide 0.1 mg/mL)","Sour ([4]; sensor CA0, peptide 1 mg/mL)","Salty ([4]; sensor CT0, peptide 0.1 mg/mL)","Salty ([4]; sensor CT0, peptide 1 mg/mL)",other results
TDPELV [TaPep60],111.81,114.61,113.81,107.02,102.29,91.72,106.41,108.73,103.06,105.62,98.99,104.57,1.33,-5.30,7.64,3.00,-2.65,12.51,-20.71,9.00,"Sweet ([4]; sensor GL1, peptide 0.1 mg/mL): 5.70; Sweet ([4]; sensor GL1, peptide 1 mg/mL): -9.69; Average cell viability, BEAS-2B [5]: 110.77; Cell viability, BEAS-2B, Data1 [5]: 105.88; Cell viability, BEAS-2B, Data2 [5]: 117.95; Cell viability, BEAS-2B, Data3 [5]: 108.47"
DAELDK [TaPep34],103.89,99.83,96.64,115.21,96.25,90.61,95.80,102.34,101.89,98.04,102.49,105.14,0.43,-4.87,7.62,3.25,-0.52,15.34,-17.51,13.63,"Sweet ([4]; sensor GL1, peptide 0.1 mg/mL): 5.08; Sweet ([4]; sensor GL1, peptide 1 mg/mL): -6.74; Average cell viability, BEAS-2B [5]: 99.04; Cell viability, BEAS-2B, Data1 [5]: 114.56; Cell viability, BEAS-2B, Data2 [5]: 90.63; Cell viability, BEAS-2B, Data3 [5]: 91.92"
TIDDELR [TaPep26],94.58,84.76,94.94,104.03,104.87,103.54,102.74,108.33,99.46,96.81,98.23,103.34,1.71,-4.35,7.26,3.16,-3.53,10.93,-21.44,8.38,"Sweet ([4]; sensor GL1, peptide 0.1 mg/mL): 5.51; Sweet ([4]; sensor GL1, peptide 1 mg/mL): -3.99; Average cell viability, BEAS-2B [5]: 102.16; Cell viability, BEAS-2B, Data1 [5]: 95.61; Cell viability, BEAS-2B, Data2 [5]: 106.68; Cell viability, BEAS-2B, Data3 [5]: 104.19"
AQDDLP [TaPep20],110.18,113.51,117.20,99.83,100.19,93.96,106.73,99.87,99.56,100.69,99.18,98.80,1.29,-4.77,7.24,3.35,-2.48,11.76,-21.79,6.62,"Sweet ([4]; sensor GL1, peptide 0.1 mg/mL): 5.13; Sweet ([4]; sensor GL1, peptide 1 mg/mL): -4.17; Average cell viability, BEAS-2B [5]: 101.76; Cell viability, BEAS-2B, Data1 [5]: 114.06; Cell viability, BEAS-2B, Data2 [5]: 96.91; Cell viability, BEAS-2B, Data3 [5]: 94.32"
AWDGQ [TaPep73],107.55,109.82,117.40,95.44,105.51,111.28,115.27,89.97,106.97,104.20,108.17,108.55,0.77,-5.41,7.64,4.33,-1.22,13.38,-19.69,8.78,"Sweet ([4]; sensor GL1, peptide 0.1 mg/mL): 4.76; Sweet ([4]; sensor GL1, peptide 1 mg/mL): -5.09; Average cell viability, BEAS-2B [5]: 106.58; Cell viability, BEAS-2B, Data1 [5]: 95.61; Cell viability, BEAS-2B, Data2 [5]: 116.85; Cell viability, BEAS-2B, Data3 [5]: 107.28"
LWGPVT [TaPep72],101.26,115.31,97.84,90.65,99.47,107.29,101.62,89.49,100.76,102.49,95.02,104.76,2.15,-4.42,7.25,3.83,-4.62,11.06,-19.66,7.83,"Sweet ([4]; sensor GL1, peptide 0.1 mg/mL): 7.58; Sweet ([4]; sensor GL1, peptide 1 mg/mL): -5.31; Average cell viability, BEAS-2B [5]: 100.50; Cell viability, BEAS-2B, Data1 [5]: 118.74; Cell viability, BEAS-2B, Data2 [5]: 92.32; Cell viability, BEAS-2B, Data3 [5]: 90.43"
LGGDL [TaPep58],94.58,94.94,87.85,100.93,99.81,89.41,103.78,106.25,101.42,99.84,107.22,97.19,2.07,-4.23,7.49,3.43,-4.24,10.37,-21.68,10.46,"Sweet ([4]; sensor GL1, peptide 0.1 mg/mL): 7.50; Sweet ([4]; sensor GL1, peptide 1 mg/mL): -6.69; Average cell viability, BEAS-2B [5]: 99.93; Cell viability, BEAS-2B, Data1 [5]: 103.89; Cell viability, BEAS-2B, Data2 [5]: 90.43; Cell viability, BEAS-2B, Data3 [5]: 105.48"
EEVPITD [TaPep46],104.39,107.62,107.82,97.74,101.12,105.61,97.55,100.19,100.85,99.94,100.60,102.02,1.60,-4.41,7.55,4.18,-3.21,10.78,-21.33,4.55,"Sweet ([4]; sensor GL1, peptide 0.1 mg/mL): 6.32; Sweet ([4]; sensor GL1, peptide 1 mg/mL): -3.59; Average cell viability, BEAS-2B [5]: 111.37; Cell viability, BEAS-2B, Data1 [5]: 117.25; Cell viability, BEAS-2B, Data2 [5]: 103.29; Cell viability, BEAS-2B, Data3 [5]: 113.56"
HIDELDE [TaPep22],95.67,103.83,84.66,98.54,101.94,90.69,106.97,108.17,98.23,106.09,94.35,94.26,2.56,-3.68,6.91,3.37,-5.65,9.43,-22.87,7.21,"Sweet ([4]; sensor GL1, peptide 0.1 mg/mL): 7.18; Sweet ([4]; sensor GL1, peptide 1 mg/mL): -4.86; Average cell viability, BEAS-2B [5]: 111.67; Cell viability, BEAS-2B, Data1 [5]: 106.78; Cell viability, BEAS-2B, Data2 [5]: 113.26; Cell viability, BEAS-2B, Data3 [5]: 114.96"
